Results as given in article PMC7613515, “Reading and erasing of the phosphonium analogue of trimethyllysine by epigenetic proteins” (Communications Chemistry, 2022).

System: KDM4AJmjC (M1–L359)
Assay: MALDI-TOF demethylation assay, KDM4AJmjC
Type: biochemical, human
Details: KDM4AJmjC 2.4 µM, peptide 5.0 µM, 1 hr, duplicates
Description: To investigate whether H3KP9me3 can be demethylated by other human KDM4 subfamily members, recombinant KDM4AJmjC (M1–L359) and KDM4DJmjC (M1–L358) were produced in E. coli following an adaption of literature procedures[38],[39]. […] To test the ability of KDM3 and KDM7 subfamily representatives to demethylate H3KP9me2 or H3KP9me3, KDM3AJmjC (T515–S1317) and KDM7BJmjC (M37–N483) were produced using baculovirus/sf9 and E. coli expression systems, respectively[40],[41]. The synthesis of a histone H3 mimic peptide H3KP9me2 substrate is challenging as the tri-alkylated phosphine group is susceptible to oxidation during synthesis of the protected amino acid and during SPPS requiring oxygen-free conditions. Thus, to investigate if KDM3AJmjC or KDM7BJmjC can catalyse demethylation of H3KP9me2, an appropriate H3KP9me2 substrate was prepared in situ from H3KP9me3 using KDM4EJmjC (2.0 µM), in the presence of KDM3AJmjC (2.0 µM) or KDM7BJmjC (2.0 µM).
A Bruker Daltonics MALDI-TOF/TOF AutoflexSpeed machine and Bruker MTP 384 target plates (polished steel BC, Part: 8280781) were used. The machine was controlled using Flex control (v. 3.4 build 135.10) and Compass for flex series (v. 1.4) software. Measurements were in the positive ion mode with the reflectron mode enabled. […] Samples were then analysed by MALDI-TOF. […]

ARTKQTAR(KPme3)STGGKA [H3KP9me3, histone H3 residues 1–15 with trimethylphosphonium lysine analogue at position 9]
demethylation: substantial turnover to H3KP9me2
